Data published in patent publication US20240391930A1, “SPIROCYCLIC BICYCLIC MODULATORS OF CHOLESTEROL BIOSYNTHESIS AND THEIR USE FOR PROMOTING REMYELINATION” (GENENTECH, INC., priority 2021, published 2024).

Key:
[1] = target: T1, human emopamil binding protein and human 7-dehydrocholesterol reductase (hEBP-DHCR7) (Homo sapiens, UniProt Q15125); experiment: hEBP-DHCR7 radioligand filtration binding assay; details: membranes of HEK293 co-expressing hEBP and DHCR7; [3H] 2-thia-6-azaspiro[3.4]octane radioligand; 8 doses 0.06 to 5000 nM
T1 construct: expressed in transfected cells; host or cells: HEK 293 cells, transient transfection with 2 DNA constructs
T1 sequence (Q15125 whole entry): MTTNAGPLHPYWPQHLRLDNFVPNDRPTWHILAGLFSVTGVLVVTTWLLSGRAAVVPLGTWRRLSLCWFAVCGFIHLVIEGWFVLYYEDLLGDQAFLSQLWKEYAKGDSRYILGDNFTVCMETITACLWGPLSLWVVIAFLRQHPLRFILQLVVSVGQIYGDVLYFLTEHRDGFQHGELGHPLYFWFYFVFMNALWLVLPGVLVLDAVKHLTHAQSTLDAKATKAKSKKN
Method: Membrane Preparation: human emopamil binding protein and human 7-dehydrocholesterol reductase co-expressing cells were generated by transient transfecting host human embryonic kidney (HEK) 293 cells with 2 DNA constructs containing each protein's coding sequence. Cells were suspension cultured at 37° C. with 5% CO2 in […] 293 Expression Medium (Thermofisher). Whole cell membrane was prepared by harvesting the cell pellet, adding cold membrane buffer (50 mM Tris, pH7.5, lx Roche COMPLETE EDTA-free protease inhibitor cocktail) 10 times volume of the cell pellets weight, lysing cell pellet on ice by using Dounce homogenizer, spinning at 200 g 4° C. for 15 min, collecting supernatant and spinning again at 25000 g 4° C. for 50 min, transferring pellet to Dounce homogenizer, re-suspending pellet by homogenizing in membrane buffer on ice to reach ˜25 mg/mL, then keeping whole cell membrane aliquots at −80° C.
Compounds were prepared in a 96-well U bottom plate using an Echo550 machine and 10 mM compound DMSO stock solution, followed by an 8-dose 5-fold serial dilutions protocol with final testing compound concentration ranging from 0.06 to 5000 nM, with DMSO back fill to 100 nL/well and n=2. […] The UniFilter-96 GF/B plates were pre-treated by adding 50 µl/well of 0.3% (v/v) PEI to UniFilter-96 GF/B plates. The plates were sealed and incubated at 4° C. for 3 hrs. Then, the plates were washed with ice-cold assay buffer 3 times. The radioligand binding assay was prepared by adding assay buffer diluted hEBP-DHCR7 membrane at 66.7 μg/ml×150 l/well into the 96-well compound plate to reach 10 μg membrane per well. Then, the assay buffer diluted [3H]—((S)-6-(2-Methyl-3-(6-(trifluoromethyl)pyridin-3-yl)propyl)-2-thia-6-azaspiro[3.4]octane 2,2-dioxide or (R)-6-(2-Methyl-3-(6-(trifluoromethyl)pyridin-3-yl)propyl)-2-thia-6-azaspiro[3.4]octane 2,2-dioxide) was added at 25 nM×50 l/well. Following this, the plate was centrifuged at 1000 rpm for 30 secs. The plate was then sealed and agitated at 600 rpm at 22° C. for 5 min, and then incubated at 22° C. for 3 hrs. The incubation was stopped by transferring the binding solution to the pre-treated UniFilter-96 GF/B plate, vacuum filtrated, and then washed four times with ice-cold assay buffer. Following this, the plates were dried at 37° C. for 45 min. The plates were then sealed at the bottom. 40 µl/well of scintillation cocktail was added to the plates. A MicroBeta2 microplate counter was then used to read the plate and analyze the data. For reference and test compounds, the results are expressed as % Inhibition, using the normalization equation: N=100−100×(U−C2)/(C1−C2), where U is the unknown value, C1 is the average of high controls, and C2 is the average value of low controls. The IC50 was determined by fitting percentage of inhibition as a function of compound concentrations with Hill equation using XLfit. Results are expressed as hEBP-DHCR7 Ki (uM) in Table 4. Ki was calculated as described above; * indicates isolated isomer or isomers, but that the stereochemistry has not been assigned.

[2] = test system: zymostenol accumulation in EpiSC-derived OPCs (EBP); experiment: GC/MS-based sterol profiling (zymostenol accumulation); format: cell-based; details: Mus musculus, 24 hours, 8 doses from 0.15 nM to 333 nM, read-out: Zymostenol GCMS EC50
Method: To assess effects of treatments on OPCs, all treatments were assayed in two or more independent platings of epiblast stem cell-derived OPCs (EpiSC). EpiSC-derived OPCs were obtained using in vitro differentiation protocols and culture conditions described previously (Najm et al, 2011, Nature Methods). OPCs were expanded and frozen down in aliquots. OPCs were thawed into growth conditions for at least one passage before use in further assays.
Sterols were monitored using a modified Folch wash protocol (Hubler et al, 2018, Nature). EpiSC-derived OPCs were plated at 100,000 cells per well in PO- and laminin-coated 96-well plates in N2B27 media without growth factors. After 24 hours, cells were rinsed with saline and plates were frozen. Cholesterol-d7 standard was then added to each well before drying under nitrogen stream and derivatization with 55 μl of bis(trimethylsilyl) trifluoroacetamide. After derivatization, 2 μl were analyzed by gas chromatography/mass spectrometry using an Agilent 5973 Network Mass Selective Detector equipped with a 6890 gas chromatograph system and a HP-5MS capillary column (30 m×0.25 mm×[…]). Samples were analyzed in full scan mode using electron impact ionization; ion fragment peaks were integrated to calculate sterol abundance, and quantitation was relative to cholesterol-d7. The following ion fragments were used to quantitate each metabolite: cholesterol-d7 (465), FF-Mas (482), cholesterol (368), zymostenol (458), zymosterol (456), Desmosterol (456, 343), 7-dehydrocholesterol (456, 325), lanosterol (393), lathosterol (458), 14-dehydrozymostenol (456, 351). […] All standards were obtained from Avanti Polar Lipids unless otherwise indicated. Calibration curves were generated by injecting varying concentrations of sterol standards and maintaining a fixed amount of cholesterol-D7. For normalized zymostenol accumulation results, the total amount of zymostenol measured after drug treatment was divided by the total amount of zymostenol accumulated after 24 hr treatment with 100 nM positive control reference.

| Ki [1] | EC50 [2] | SMILES |
| --- | --- | --- |
| 554 nM | 110 nM | CC(C)n1nc([C@H]2CC[C@@](O)(C(F)(F)F)CC2)cc1[C@H]1[C@@H]2C[C@@H](N3CCC4(C3)CS(=O)(=O)C4)C[C@@H]21 (single isomer, unassigned) [Compound 105*] |
| – | 3.6 nM | CC(C)n1nc(-c2cccc(C(F)(F)F)n2)cc1[C@H]1[C@@H]2C[C@H](N3CCC[C@@]4(CCS(=O)(=O)C4)C3)C[C@@H]21 (single isomer, unassigned) [Compound 82*] |
| 11.8 nM | 2.2 nM | CC(C)(C)n1nc(-c2cccc(C(F)(F)F)c2)nc1[C@H]1[C@@H]2C[C@H](N3CCC4(C3)CS(=O)(=O)C4)C[C@@H]21 (single isomer, unassigned) [Compound 76] |
| – | 58.3 nM | CC(C)n1nc(C(F)(F)F)cc1[C@H]1[C@@H]2C[C@H](N3CCC[C@]4(CCS(=O)(=O)C4)C3)C[C@@H]21 (single isomer, unassigned) [Compound 95*] |
| 6.85 nM | 22.1 nM | O=S1(=O)CC2(CCN([C@H]3C[C@@H]4[C@H](C3)[C@H]4c3cc(C(F)(F)F)n(CC(F)F)n3)CC2)C1 (single isomer, unassigned) [Compound 97] |
| 21.2 nM | 13 nM | O=S1(=O)CC[C@@]2(CCCN([C@@H]3C[C@@H]4[C@H](C3)[C@H]4c3cc(C(F)(F)F)nn3CC(F)F)C2)C1 (single isomer, unassigned) [Compound 86*] |
| 26.4 nM | 35 nM | CCn1nc(-c2cncc(F)c2)cc1[C@H]1[C@@H]2C[C@@H](N3CCC4(CC3)CS(=O)(=O)C4)C[C@@H]21 (single isomer, unassigned) [Compound 66*] |
| 13.1 nM | 14.6 nM | CC(C)n1nc([C@H]2CC[C@@H](C(F)(F)F)CC2)cc1[C@H]1[C@@H]2C[C@@H](N3CCC4(C3)CS(=O)(=O)C4)C[C@@H]21 (single isomer, unassigned) [Compound 106] |
| – | 4.3 nM | CC(C)n1nc(-c2cccc(C(F)(F)F)n2)cc1[C@H]1[C@@H]2C[C@@H](N3CCC[C@@]4(CCS(=O)(=O)C4)C3)C[C@@H]21 (single isomer, unassigned) [Compound 80*] |
| – | 41 nM | CC(C)n1nc(-c2cccc(C(F)(F)F)n2)cc1[C@H]1[C@@H]2C[C@H](N3CCC[C@]4(CCS(=O)(=O)C4)C3)C[C@@H]21 (single isomer, unassigned) [Compound 83*] |
| 16.3 nM | 24 nM | O=S1(=O)CC2(CCN([C@H]3C[C@@H]4[C@H](C3)[C@H]4c3cc(C(F)(F)F)nn3CC(F)F)C2)C1 (single isomer, unassigned) [Compound 91*] |
| – | 3 nM | CC(C)n1nc(-c2cccc(C(F)(F)F)c2)nc1[C@H]1[C@@H]2C[C@@H](N3CCC4(CC3)CS(=O)(=O)C4)C[C@@H]21 [Compound 79, 7-((1R,3s,5S,6r)-6-(1-isopropyl-3-(3-(trifluoromethyl)phenyl)-1H-1,2,4-triazol-5-yl)bicyclo[3.1.0]hexan-3-yl)-2-thia-7-azaspiro[3.5]nonane 2,2-dioxide] |
| 10.3 nM | 2.4 nM | CC(C)n1nc(-c2cccc(C(F)(F)F)c2)nc1[C@H]1[C@@H]2C[C@H](N3CCC4(C3)CS(=O)(=O)C4)C[C@@H]21 [Compound 52, 6-((1R,3r,5S,6r)-6-(1-isopropyl-3-(3-(trifluoromethyl)phenyl)-1H-1,2,4-triazol-5-yl)bicyclo[3.1.0]hexan-3-yl)-2-thia-6-azaspiro[3.4]octane 2,2-dioxide] |
| 33.6 nM | 53 nM | CC(C)(C)n1nc(C(F)(F)F)nc1[C@H]1[C@@H]2C[C@H](N3CCC4(C3)CS(=O)(=O)C4)C[C@@H]21 (single isomer, unassigned) [Compound 78*] |
| 18.9 nM | 7.7 nM | O=S1(=O)CC[C@@]2(CCCN([C@H]3C[C@@H]4[C@H](C3)[C@H]4c3cc(C(F)(F)F)nn3CC(F)F)C2)C1 (single isomer, unassigned) [Compound 88*] |
| 438 nM | 37.9 nM | O=S1(=O)CC2(CCN([C@@H]3C[C@@H]4[C@H](C3)[C@H]4c3cc(C(F)(F)F)n(CC(F)F)n3)CC2)C1 (single isomer, unassigned) [Compound 96*] |
| 203 nM | 44 nM | CCn1nc(-c2cccnc2)cc1[C@H]1[C@@H]2C[C@@H](N3CCC4(C3)CS(=O)(=O)C4)C[C@@H]21 (single isomer, unassigned) [Compound 64*] |
| 94.6 nM | > 330 nM | O=S1(=O)CC[C@]2(CCCN([C@@H]3C[C@@H]4[C@H](C3)[C@H]4c3cc(C(F)(F)F)nn3CC(F)F)C2)C1 (single isomer, unassigned) [Compound 87*] |
| – | 27 nM | CC(C)n1nc(-c2cccc(C(F)(F)F)n2)cc1[C@H]1[C@@H]2C[C@@H](N3CCC[C@]4(CCS(=O)(=O)C4)C3)C[C@@H]21 (single isomer, unassigned) [Compound 81*] |
| 303 nM | 47 nM | CCn1nc(-c2ccccn2)cc1[C@H]1[C@@H]2C[C@@H](N3CCC4(C3)CS(=O)(=O)C4)C[C@@H]21 [Compound 72, 6-((1R,3s,5S,6r)-6-(1-Ethyl-3-(pyridin-2-yl)-1H-pyrazol-5-yl)bicyclo[3.1.0]hexan-3-yl)-2-thia-6-azaspiro[3.4]octane 2,2-dioxide] |
| – | 240 nM | CC(C)n1nc(C(F)(F)F)cc1[C@H]1[C@@H]2C[C@@H](N3CCC[C@]4(CCS(=O)(=O)C4)C3)C[C@@H]21 (single isomer, unassigned) [Compound 93*] |
| 128 nM | 270 nM | O=S1(=O)CC[C@]2(CCCN([C@H]3C[C@@H]4[C@H](C3)[C@H]4c3cc(C(F)(F)F)nn3CC(F)F)C2)C1 (single isomer, unassigned) [Compound 89*] |
| 93 nM | 330 nM | CC(C)(C)n1nc(C(F)(F)F)nc1[C@H]1[C@@H]2C[C@@H](N3CCC4(C3)CS(=O)(=O)C4)C[C@@H]21 (single isomer, unassigned) [Compound 77*] |
| 171 nM | 37 nM | CCn1nc(-c2cncc(F)c2)cc1[C@H]1[C@@H]2C[C@H](N3CCC4(CC3)CS(=O)(=O)C4)C[C@@H]21 (single isomer, unassigned) [Compound 67*] |
| – | 3.47 nM | CC(C)n1nc(C(F)(F)F)cc1[C@H]1[C@@H]2C[C@H](N3CCC[C@@]4(CCS(=O)(=O)C4)C3)C[C@@H]21 (single isomer, unassigned) [Compound 94*] |
